{
  "source": "paper PMC7291828",
  "about": "(Journal of medicinal chemistry, 2019)",
  "key": {"[1]": {"test_system": "MCF7, HCT116 and HeLa cells", "conditions": "≥20 μM, apparently off-target (membrane disruption)"}, "[2]": {"test_system": "SW480 cells", "conditions": "up to 50 μM"}, "[3]": {"test_system": "HeLa cells", "test": "Live-cell confocal microscopy of FAM-labeled peptides", "assay_type": "cell-based", "conditions": "5 μM FAM-labeled peptide, 2 h, 1% FBS"}, "[4]": {"test_system": "SJSA-1 cells", "test": "MTT viability assay, SJSA-1 cells", "assay_type": "cell-based, human"}, "[5]": {"conditions": "cited from earlier work"}},
  "note": "Where a SMILES comes first, the peptide text is derived from it. Bridges are numbered along the chain shown (N, C = ends). Roman numbers before positions name the chains, in order. [ ]: non-standard residue; d: D form. 2Nal = N[C@@H](Cc1ccc2ccccc2c1)C(=O)O; Dap = NC[C@H](N)C(=O)O; AEEA = NCCOCCOCC(=O)O",
  "data": [
    {"compound": "CC(=O)N[C@@H](CC(C)C)C(=O)N[C@H](C(=O)N[C@@H](Cc1ccccc1)C(=O)N[C@H]1CC(=O)NCCCC[C@@H](C(=O)N[C@@H](CCC(N)=O)C(=O)N[C@@H](CC(C)C)C(=O)N[C@H](C(=O)N[C@@H](CO)C(=O)NCCOCCOCC(=O)N[C@@H](CCCCNC(=O)CC[C@@H]2NC(=O)[C@@H](CCCNC(=N)N)NC(=O)[C@H](CCCNC(=N)N)NC(=O)[C@@H](CCCNC(=N)N)NC(=O)[C@H](CCCNC(=N)N)NC(=O)[C@H](Cc3ccc4ccccc4c3)NC(=O)[C@@H](Cc3ccccc3)NC2=O)C(N)=O)[C@@H](C)O)NC(=O)[C@H](Cc2c[nH]c3ccccc23)NC(=O)[C@H](Cc2ccc(O)cc2)NC(=O)[C@H](Cc2cnc[nH]2)NC1=O)[C@@H](C)O", "note": "[Peptide 4] (I: Ac-LTFDHYWKQLTS[AEEA]K-NH2 / II: cyclo([2Nal]R[dR]R[dR]E[dF]); lactam I:4-I:8; amide I:14-II:6)", "values": [
      {"measurement": "effect on cell viability at higher concentrations", "setting": "[1]", "value": "almost complete loss of cell viability"}
    ]},
    {"compound": "CC[C@H](C)[C@@H]1NC(=O)[C@@H](NC(=O)[C@H](CCC(=O)O)NC(=O)[C@@H]2CCCN2C(=O)[C@H](Cc2ccc(O)cc2)NC(=O)CNC(=O)CNC(C)=O)CC(=O)NCCCC[C@@H](C(=O)N[C@@H](Cc2cnc[nH]2)C(=O)N[C@@H](CC(C)C)C(=O)N[C@@H](CCC(N)=O)C(=O)N[C@@H](CCCNC(=N)N)C(=O)N[C@H](C(=O)N[C@H](C(=O)N[C@@H](CC(C)C)C(=O)NCCOCCOCC(=O)NCCOCCOCC(=O)N[C@@H](CNC(=O)CC[C@@H]2NC(=O)[C@@H](CCCNC(=N)N)NC(=O)[C@H](CCCNC(=N)N)NC(=O)[C@@H](CCCNC(=N)N)NC(=O)[C@H](CCCNC(=N)N)NC(=O)[C@H](Cc3ccc4ccccc4c3)NC(=O)[C@@H](Cc3ccccc3)NC2=O)C(N)=O)[C@@H](C)CC)C(C)C)NC(=O)[C@H](CC(=O)O)NC(=O)[C@H](CC(C)C)NC1=O", "note": "[Peptide 9] (I: Ac-GGYPEDILDKHLQRVIL[AEEA][AEEA][Dap]-NH2 / II: cyclo([2Nal]R[dR]R[dR]E[dF]); lactam I:6-I:10; amide I:20-II:6)", "values": [
      {"measurement": "LDH release from SW480 cells", "setting": "[2]", "value": "did not cause significant LDH release"}
    ]},
    {"compound": "Ac-EETFCHYWCQLTS-miniPEG-K(FAM) (bicyclic or more) [Peptide 25]", "values": [
      {"measurement": "intracellular fluorescence", "setting": "[3]", "value": "brightly fluorescent"}
    ]},
    {"compound": "Ac-ETFCHYWCQLTS-miniPEG-K(FAM) (bicyclic or more) [Peptide 23]", "values": [
      {"measurement": "intracellular fluorescence", "setting": "[3]", "value": "brightly fluorescent"}
    ]},
    {"compound": "Ac-LTFCHYWCQLTS-miniPEG-K(FAM) (bicyclic or more) [Peptide 21]", "values": [
      {"measurement": "intracellular fluorescence", "setting": "[3]", "value": "brightly fluorescent"}
    ]},
    {"compound": "Ac-LTFDHYWKQLTS-miniPEG-K(R9) (sidechain bridge or staple) [Peptide 7]", "values": [
      {"measurement": "effect on viability of SJSA-1 cells", "setting": "[4]", "value": "did not cause significant reduction"}
    ]},
    {"compound": "Ac-LTFDHYWKQLTS-miniPEG-K(Tat) (sidechain bridge or staple) [Peptide 6]", "values": [
      {"measurement": "effect on viability of SJSA-1 cells", "setting": "[4]", "value": "did not cause significant reduction"}
    ]},
    {"compound": "nonaarginine [Peptide R9]", "values": [
      {"measurement": "fold lower cytosolic delivery efficiency than cyclic CPP9", "setting": "[5]", "value": 15, "unit": "fold"}
    ]}
  ]
}
